Experimental findings from patent publication US5512549A, “Glucagon-like insulinotropic peptide analogs, compositions, and methods of use” (Eli Lilly and Company, priority 1994, dated 1996) are described below.

One test concerns beagles. The experiment in a line: Dog S.C. Hyperglycemic (150 mg/dl) Clamp Test. It is filed as in vivo. Particulars: S.C. 10 μg/kg; for GIR Change AUC / Insulin Change AUC: 0-120 min; for GIR Change AUC / Insulin Change AUC / Max Insulin Change: mean ± SEM; for Max Insulin Change: 120 minute test period; for Duration of Insulin Effect: time average insulin change consistently >0.5 ng/ml. The method, then:
a) Hyperglycemic Clamp Studies
Experiments were conducted in overnight-fasted, conscious, adult (1-2 years of age) male and female beagles weighing 8-15 kg. At least ten days prior to the study, animals were anesthetized with isoflurane, and a cut-down was made in the left or right inguinal region. Silastic catheters were inserted into the femoral artery and the proximal caudal femoral vein and secured with 4-0 silk suture. The free ends of the catheters were passed subcutaneously to the back using a trocar needle. The catheters were then filled with a glycerol/heparin solution (3:1, v/v; final heparin concentration of 250 KIU/ml), and the free ends were knotted and placed in a subcutaneous pocket to allow complete closure of the skin. Keflex® was administered both pre-operatively (20 mg/kg, IV and 20 mg/kg, I.M.) and post-operatively (250 mg, p.o. once daily for seven days) to prevent infections. Torbugesic (1.5 mg/kg, I.M.) was administered post-operativelyto control pain.
Blood was drawn just prior to the study day to determine the health of the animal. Only animals with hematocrits above 38% and leukocyte counts below 16,000/mm^3 were used.
The afternoon before the experiment, the free ends of the catheters were exteriorized from the subcutaneous pocket through a small incision made under local anesthesia (2% lidocaine), and the dog was fitted with a tether system jacket and collar assembly.
The morning of the experiment, the contents of the catheters were aspirated, the catheters were flushed with saline, and extension lines (protected by a stainless steel tether) were attached to the catheters. On mornings of IV injection experiments, an over-the-needle, teflon catheter was inserted percutaneously into a cephalic vein in preparation for the administration of an IV bolus of test substance. The dog was placed in a metabolic cage, and the catheter extension lines and tether were attached to a swivel system to allow the dog to move freely about the cage. At this time (-60 minutes), an exogenous infusion of glucose (50% w/v in water) was begun through the chronic venous catheter. Glucose was infused in a descending stepwise fashion over the first six minutes of the study to rapidly raise the plasma glucose concentration to 150 mg/dl. Plasma glucose concentrations were determined every 2.5 to 7.5 minutes throughout the remainder of the study, and the glucose infusion rate was adjusted appropriately to maintain the plasma glucose concentration at 150 mg/dl.
Sixty minutes after the start of the glucose infusion (time 0), test substance was administered either intravenously (1.0, 2.9, 5.0 or 10.0 μg/kg; dose dissolved in 2 ml of saline containing 0.3% dog albumin, w/v) through the previously inserted teflon catheter or subcutaneously (10 μg/kg; 150 μM in phosphate buffered saline) in the dorsal aspect of the neck.
Arterial blood samples (3.5 ml) were taken at -30, -15, 0, 2.5, 5, 7.5, 10, 12.5, 15, 20, 30, 45, 60, 75, 90, 105 and 120 minutes during the IV studies and at -30, -15, 0, 3, 6, 9, 12, 15, 20, 30, 45, 60, 75, 90, 105 and 120 minutes during the SC studies. Samples were collected in vacuum blood collection tubes containing disodium EDTA and immediately placed on ice. To prevent proteolytic cleavage of GLP-1(7-37) in the plasma samples, 1.5 ml of the EDTA containing blood were transferred to a polypropylene tube containing 40 μl of aprotinin (10,000 KIU/ml) and mixed well. The samples were centrifuged, and the resulting plasma was transferred to polypropylene test tubes and stored on ice for the duration of the study.
At the conclusion of the experiment, the animal was anesthetized (isoflurane); the catheters were flushed with fresh saline and filled with the glycerol/heparin mixture; the free ends of the catheters were knotted and placed subcutaneously as described earlier; and antibiotic was administered (300 mg Keflex®, I.M.). […]

The next test relates to Sprague Dawley rats. The experiment in a line: Rat I.V. Hyperglycemic (150 mg/dl) Clamp Test. The format is in vivo. Particulars: for Insulin Change AUC: 0-15 min; for GIR Change AUC: 0-30 min; for Max Insulin Change: 90 minute test period; for Duration of Insulin Effect: time average insulin change >0 ng/ml. Here is the method:
b) Hyperglycemic Clamp Studies
Experiments were conducted in chronically catheterized, normal, male Sprague Dawley rats weighing about 350 grams. At least a week prior to studies, surgery was performed on the rats under isoflurane anesthesia. Two catheters were implanted into the jugular vein for infusions of glucose and peptide and one catheter into the carotid artery for blood sampling. The catheters were exteriorized through the skin at the vertex of the head, filled with glycerol/heparin solution (3:1,v/v) and closed off with a one centimeter stainless steel plug. Animals were housed individually in wire mesh cages and allowed free access to standard rat chow diet and water.
Catheterized rats were fasted overnight prior to studies. On the morning of the experiment, rats were weighed and sampling tubings connected to their indwelling catheters. The tubings were enclosed in a light weight stainless steel spring for protection. During the study, rats were kept unrestrained in a plastic shoe box cage (12"×10"×12") with about one inch of bedding. After 15 minutes of acclimation, a basal sample was taken for measurement of insulin and glucose levels. At time -60 minutes, rats were given a bolus of 20% dextrose to raise plasma glucose to 150 mg/dl. The plasma glucose concentration was maintained at this level for the duration of the study by measuring the plasma glucose concentration every five minutes and adjusting the calibrated variable infusion pump accordingly. Blood samples were collected at -15 and 0 minutes for baseline measurements. Immediately after taking the zero minute sample, peptide (130-155 μM stock concentration, diluted in phosphate buffered saline) was injected via the jugular vein catheter and flushed with saline. Blood samples were taken for glucose and insulin determinations at 2, 4, 6, 8, 10, 12, 15, 20, 25, 30, 40, 50, 60, 70, 80, and 90 minutes. All blood samples were collected into syringes coated with sodium heparin, transferred into micro centrifuge tubes and placed on ice. Blood samples were then centrifuged in a micro centrifuge to separate the plasma component.
Plasma glucose levels were determined on the day of the study by the glucose oxidase method using the Beckman Glucose Analyzer 2, while the insulin concentrations were measured by a commercial kit (Diagnostic Products Corporation) with rat insulin standard.
Insulin change (the change in insulin from the baseline value) was calculated as the difference between the insulin concentration at time t and the average insulin concentration prior to injection of test substance. The area under the insulin change curve was calculated using the trapezoidal rule. Glucose infusion rate change (the percent change in the glucose infusion rate from the baseline value) was calculated as the difference between the glucose infusion rate value at time t and the average glucose infusion rate prior to injection of test substance, divided by the average glucose infusion rate prior to injection of test substance, times 100. The area under the glucose infusion rate change curve was calculated on the absolute glucose infusion rate change values (calculated as the difference between the glucose infusion rate value at time t and the glucose infusion rate prior to injection of test substance) using the trapezoidal rule. Values are listed as the mean ± the standard error of the mean (SEM).

For the substance “Lys^34 -N^ε -octanoyl-GLP-1(7-37)OH [Lys^34-N^ε-octanoyl-GLP-1(7-37)OH]”, in the test on beagles, the “GIR Change AUC” value is recorded as 532 ± 112 mg/kg, the “Insulin Change AUC” value stood at 29 ± 8 ng·min/mL, the “Max Insulin Change” value was 0.6 ± 0.3 ng/mL and the “Duration of Insulin Effect” value is recorded as “not active”. Further, in the test on Sprague Dawley rats (I.V. 1.0 μg/kg), the “Insulin Change AUC” value came out at 13.2 ng·min/mL, the “GIR Change AUC” value amounted to 132 mg/kg, the “Max Insulin Change” value is 2.4 ± 0.8 ng/mL and the “Duration of Insulin Effect” value turned out to be 4 min.
Consider GLP-1(7-37)OH, for which the “GIR Change AUC” value in the test on beagles was 696 ± 145 mg/kg; in the test on Sprague Dawley rats (I.V. 0.05 μg/kg), 48 ± 22 mg/kg; in the test on Sprague Dawley rats (I.V. 0.1 μg/kg), 150 mg/kg; in the test with Sprague Dawley rats (I.V. 0.2 μg/kg), 154 mg/kg; in the test with Sprague Dawley rats (I.V. 0.6 μg/kg), 151 mg/kg; with Sprague Dawley rats (I.V. 1.0 μg/kg), 131 mg/kg. For the same substance, the “GIR Change AUC” value in the test on Sprague Dawley rats (I.V. 2.0 μg/kg) was found to be 152 mg/kg; in the test with Sprague Dawley rats (I.V. 4.0 μg/kg) it was 139 mg/kg. Also, the “Insulin Change AUC” value was 64 ± 33 ng·min/mL in the test with beagles; 3.0 ± 1.6 ng·min/mL in the test with Sprague Dawley rats (I.V. 0.05 μg/kg); 7.3 ± 2.8 ng·min/mL in the test with Sprague Dawley rats (I.V. 0.1 μg/kg); 5.8 ± 0.9 ng·min/mL with Sprague Dawley rats (I.V. 0.2 μg/kg); 14.9 ng·min/mL with Sprague Dawley rats (I.V. 0.6 μg/kg); 16.7 ng·min/mL in the test on Sprague Dawley rats (I.V. 1.0 μg/kg). For the same substance, the figures for the “Insulin Change AUC” value with Sprague Dawley rats (I.V. 2.0 μg/kg) and with Sprague Dawley rats (I.V. 4.0 μg/kg) were 11.5 ng·min/mL and 10.4 ng·min/mL, respectively. Also, the “Max Insulin Change” value turned out to be 1.6 ± 0.8 ng/mL in the test on beagles; 1.6 ± 0.3 ng/mL with Sprague Dawley rats (I.V. 0.05 μg/kg); 3.6 ± 1.2 ng/mL in the test with Sprague Dawley rats (I.V. 0.1 μg/kg); 2.8 ± 0.1 ng/mL in the test on Sprague Dawley rats (I.V. 0.2 μg/kg); 4.9 ± 1.3 ng/mL in the test on Sprague Dawley rats (I.V. 0.6 μg/kg); 7.7 ± 0.8 ng/mL in the test with Sprague Dawley rats (I.V. 1.0 μg/kg). For the same substance, the “Max Insulin Change” value with Sprague Dawley rats (I.V. 2.0 μg/kg) was 3.6 ± 0.9 ng/mL; in the test on Sprague Dawley rats (I.V. 4.0 μg/kg), 2.0 ± 0.4 ng/mL. Further, the “Duration of Insulin Effect” value in the test on beagles was determined as 27 min; in the test with Sprague Dawley rats (I.V. 0.05 μg/kg), 6 min; in the test on Sprague Dawley rats (I.V. 0.1 μg/kg) it was 6 min; in the test with Sprague Dawley rats (I.V. 0.2 μg/kg), 6 min; with Sprague Dawley rats (I.V. 0.6 μg/kg), 6 min; in the test on Sprague Dawley rats (I.V. 1.0 μg/kg) it was 6 min. In addition, the entries for the “Duration of Insulin Effect” value in the test on Sprague Dawley rats (I.V. 2.0 μg/kg) and in the test on Sprague Dawley rats (I.V. 4.0 μg/kg) were 6 min and 40 min, respectively.
